# Values joined by “and” are separate entries in the source; they are usually repeats but may differ in a detail not shown here. Equal entries are not always repeated.
# What was measured:
# [1] = cited from earlier work
# [2] = system: HeLa cells; assay: Flow cytometry of cellular uptake in HeLa cells; assay type: cell-based, human; conditions: 500 nM Nile Red, population gating based on the PBS control
# Method: (§1) Cell culture. HeLa cells were maintained in Dulbecco's Modified Eagle Medium (high glucose) supplemented with 10% fetal bovine serum (FBS), 2 mM L-glutamine, 2 mM GlutaMAX and 1 μg/mL gentamicin. Cells were cultured in 5% CO2 at 37° C. and typically split in a 1:4 ratio every 3 days. Only passage numbers between 7-20 were used for all experiments.
# Flow cytometry. HeLa cells were seeded at a density of 30,000 cells per well in a 24-well plate in 500 μL of culture medium and allowed to recover at 37° C. and 5% CO2 for 24 hours to reach 60-80% confluency. Both OP protein and surfactant solutions were sterilized by filtration through a 0.22 μm membrane, and stocks were prepared in sterile PBS. Nile Red solution (50 μM) in 1:1 EtOH:H2O was used without sterilization. OP capsid-micelle complexes were prepared as described above. For each well 20 μL of sample in PBS was added to 200 μL of culture media to give the final concentration of 200 nM. Cells were incubated for 16-20 h in 5% CO2 at 37° C. before washing with PBS and trypsinization (0.05% Trypsin-EDTA (Thermo Fisher Scientific, USA), 4 minutes at 37° C.). Cells were collected in cold culture medium and washed twice with cold PBS before resuspension in flow cytometry buffer (PBS with 5% FBS).
# [3] = in PBS buffer; cited from earlier work
# [4] = system: HeLa cells; assay: Cell viability assay (WST-8-based Cell Counting Kit-8); design: species or system human; conditions: 2.5 μM lapatinib, 18 hour incubation
# Method: as §1
# Cell viability assay. Cytotoxicity was assessed using the WST-8-based Cell Counting Kit-8 from Sigma according to the manufacturer's instructions. HeLa cells were seeded at a density of 5,000 cells per well in a 96-well plate in 100 μL of culture medium and allowed to recover at 37° C. and 5% CO2 for 24 hours. Protein, surfactant and drug samples were prepared by serial dilution in sterile PBS. As a negative control 10 μL of 10% Triton X-100 in PBS were used per well. The positive control was just PBS. […] The plate was then incubated for 2-4 hours at 37° C. and 5% CO2 before measuring absorbance at 450 nm. The absorbance of CKK-8 in culture media, without cells, was used for background subtraction and samples were normalized to untreated cells to provide the values shown in FIG. 4e,f. Samples were measured in sextuplicate with biological replicates of different protein batches.
# [5] = Effective concentration / volumetric capacity calculations; conditions: OP cavity ~256 nm^3; SDS micelle radius 17.5 Å, aggregation number 64
# Source text: Effective concentration calculations. The volume of the OP lumenal cavity (255,528 A) was estimated as a sphere with a radius of 39.4 A. This radius determined by averaging the distances between lumenally exposed residues from the reported crystal structure (Edwardson et al., 2018, op. cit.), using the UCSF Chimera software (Pettersen, E. F. et al. UCSF Chimera—a visualization system for exploratory research and analysis. J. Comput. Chem. 25, 1605-1612 (2004)). The effective concentration of SDS was simply estimated as the number of moles SDS per lumenal cavity volume. The expected number of SDS molecules was estimated by first determining the volume occupied by an individual SDS molecule in a micelle, from the reported average values of SDS micelle radius (17.5 Å) and aggregation number (n=64). Division of the OP cavity volume by the average volume of a single SDS molecule packed into micellar aggregates gives an estimated value of 729 molecules per OP cage, which is within error of the volume estimations and experimental results, which approximate 800 molecules.
# [6] = Nile Red fluorescence titration (surfactant content and cargo capacity); assay type: physicochemical; conditions: two equivalents of Nile Red, increasing SDS content
# Method: Nile Red fluorescence. For a typical fluorimetry experiment, 800 μL samples in PBS buffer were used. For the surfactant loading kinetics the ionic strength was adjusted by dissolving appropriate amounts of NaCl in PBS buffer. Stock solutions of Nile Red in acetone:water (1:1 v/v), or DMSO at concentrations of 50-500 μM were used. The excitation wavelength was set to 535 nm for all experiments.
# This number fits with a value of —730 calculated from the volumetric capacity of the OP cavity (˜256 nm^3) and the average volume occupied by an SDS molecule in a micelle (Methods section).
# As cargo-carrying is an important characteristic of the protein-micelle complex, the inventors also used fluorescence titration to determine the number of Nile Red molecules that could be accommodated per cage. Single equivalents of Nile Red were added stepwise to a solution of OP:SDS complexes and the fluorescence spectra measured for each addition (FIG. 3d). Between 1-5 molecules of Nile Red per cage, a logarithmic increase in fluorescence emission is observed with each equivalent. From 5-20 molecules of Nile Red a steady decrease in fluorescence is observed, and above 20 a steady increase in fluorescence is observed. We attribute these three distinct stages to: i) Nile Red encapsulation, ii) self-quenching and iii) excess free dye. […]
# [7] = Native agarose gel electrophoresis of OP with increasing SDS equivalents; assay type: physicochemical; conditions: up to 2000 SDS molecules per cage
# Source text: Native agarose gel electrophoresis.
# Cage-templated micelle formation. Sodium dodecyl sulfate (SDS) was chosen as the anionic surfactant (FIG. 2a), due to its aqueous solubility and the potential for favourable hydrogen bond formation between the sulfate headgroup and the many arginine residues on the interior surface of the OP capsid. As SDS is typically used as a protein denaturant, the inventors were curious if charge and shape complementarity of the OP cage could be leveraged to drive formation of a scaffolded micelle, rather than allowing hydrophobic interactions with the protein core to dominate, a pathway that leads to disruption of protein structure. As such, OP was subject to increasing molar equivalents of SDS, up to 2000 molecules per cage, and analyzed by native gel electrophoresis (FIG. 2b).
molecule,measurement,setting,value
CCN(CC)c1ccc2nc3c4ccccc4c(=O)cc-3oc2c1 [Nile Red],solubility limit in organic solvents,[1],< 5 mM
same,fraction of cells Nile Red positive,[2],58%
"CCCCCCCCCCCCOS(=O)(=O)[O-].[Na+] [SDS, Sodium dodecyl sulfate]",critical micelle concentration,[3],4 to 5 mM
CS(=O)(=O)CCNCc1ccc(-c2ccc3ncnc(Nc4ccc(OCc5cccc(F)c5)c(Cl)c4)c3c2)o1 [lapatinib],effect on cell viability,[4],negligible effect
"OP: 24-mer octahedral porous protein cage with positively charged interior, polypeptide SEQ ID NO: 2 (protein, 24-mer cage assembly) MSQAIGILELRSIAAGMELGDAMLKSANVDLLVSKTISRGKFLLMLGGDIGAIQQAIETGTSQAGRLLVDSLVLANIHPSVLPAISGLNSVDKRQAVGIVETRSVAACISAADRAVKGSNVTLVRVHMARGIGGKCYMVVAGDVSDVALAVTVASSSAGAYGRLVYASLIPRPHEAMWRQMVEGLEHHHHHH",SDS molecules per OP cage calculated from cavity volume and volume of an SDS molecule in a micelle,[5],729 molecules per OP cage and 730 molecules per OP cage
same,surfactant molecules per cage at plateau of Nile Red fluorescence,[6],~800 molecules per cage
same,SDS equivalents per protein cage up to which no change to quaternary structure,[7],approximately 800 equivalents of SDS per protein cage
